From patent publication US20250206732A1, “COMPOUNDS AND METHODS FOR THE TARGETED DEGRADATION OF KRAS” (Arvinas Operations, Inc., priority 2022, published 2025) come the findings set out here.

This assay deals with T1, AsPC-1 HiBiT-KRASG12D (Homo sapiens, UniProt P01116, G12D).
T1 construct: insert the HiBiT tag onto the N-terminus of one or more of the endogenous KRAS alleles; endogenous in cells; host or cells: AsPC-1 (ATCC CRL-1682), CRISPR-Cas9 knock-in clone, one tagged allele
In words: HiBiT degradation assay (G12D), AsPC-1 HiBiT-KRASG12D cells. In kind it is cell-based. The following applies: 24 hours treatment; for Dmax: ASPC1, AsPC-1 HiBiT-KRASG12D cells, maximum degradation observed; for DC50: AsPC-1 HiBiT-KRASG12D cells, HiBiT luminescence. Put shortly:
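AsPC-1 cells carried a CRISPR knock-in of an N-terminal HiBiT tag on endogenous KRAS G12D. After 24 h compound treatment at 37 °C (triplicate), viability was read by alamar blue (4 h, fluorescence, normalized to DMSO). HiBiT-KRAS levels were then measured by Nano-Glo HiBiT lytic luminescence after 45 min at room temperature.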
Background: The HiBiT peptide binds its large partner to form an active luciferase.

T1 sequence (P01116 1-188 isoform P01116-2 G12D): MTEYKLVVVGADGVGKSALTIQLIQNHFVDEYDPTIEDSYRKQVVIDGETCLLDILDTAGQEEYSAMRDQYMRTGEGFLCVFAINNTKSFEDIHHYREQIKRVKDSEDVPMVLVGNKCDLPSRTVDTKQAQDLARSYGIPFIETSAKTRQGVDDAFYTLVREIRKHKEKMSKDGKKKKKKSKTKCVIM

A word on the Dmax: it is the largest share of the target that was removed. A lower Dmax goes with shallow degradation. A word on the DC50: it is the midpoint of the concentration-degradation curve. Take `CCc1cccc2cc(O)cc(-c3ncc4c(N5CC6CCC(C5)N6)nc(OCCN5C[C@@H]6CN(c7cc([C@H](C(=O)N8C[C@H](O)C[C@H]8C(=O)N[C@@H](C)c8ccc(-c9scnc9C)cc8)C(C)C)on7)C[C@H]6C5)nc4c3F)c12` (relative stereo) [Compound 77, (2S,4R)-1-[(2R*)-2-{3-[(3aR,6aR)-5-{2-[(4-{3,8-diazabicyclo[3.2.1]octan-3-yl}-7-(8-ethyl-3-hydroxynaphthalen-1-yl)-8-fluoropyrido[4,3-d]pyrimidin-2-yl)oxy]ethyl}-octahydropyrrolo[3,4-c]pyrrol-2-yl]-1,2-oxazol-5-yl}-3-methylbutanoyl]-4-hydroxy-N-[(1S)-1-[4-(4-methyl-1,3-thiazol-5-yl)phenyl]ethyl]pyrrolidine-2-carboxamide]: the maximal degradation (Dmax) was in the range of 80 to 100% and the DC50 is < 600 nM.
For `CCc1cccc2cc(O)cc(-c3ncc4c(N5CC6CCC(C5)N6)nc(OC[C@]56CCCN5[C@H](COC(=O)N5CCN(c7cc([C@H](C(=O)N8C[C@H](O)C[C@H]8C(=O)N[C@@H](C)c8ccc(-c9scnc9C)cc8)C(C)C)on7)CC5)CC6)nc4c3F)c12` [Compound 105, [(3S,7aR)-7a-{[(4-{3,8-diazabicyclo[3.2.1]octan-3-yl}-7-(8-ethyl-3-hydroxynaphthalen-1-yl)-8-fluoropyrido[4,3-d]pyrimidin-2-yl)oxy]methyl}-hexahydro-1H-pyrrolizin-3-yl]methyl 4-{5-[(2R)-1-[(2S,4R)-4-hydroxy-2-{[(1S)-1-[4-(4-methyl-1,3-thiazol-5-yl)phenyl]ethyl]carbamoyl}pyrrolidin-1-yl]-3-methyl-1-oxobutan-2-yl]-1,2-oxazol-3-yl}piperazine-1-carboxylate], in that order: 80 to 100% and < 600 nM.
For `CCc1cccc2cc(O)cc(-c3ncc4c(N5CC6CCC(C5)N6)nc(OC[C@@]56CCCN5[C@H](COC(=O)N5CCC(Oc7cc([C@H](C(=O)N8C[C@H](O)C[C@H]8C(=O)N[C@@H](C)c8ccc(-c9scnc9C)cc8)C(C)C)on7)CC5)CC6)nc4c3F)c12` [Compound 117, [(3S,7aS)-7a-{[(4-{3,8-diazabicyclo[3.2.1]octan-3-yl}-7-(8-ethyl-3-hydroxynaphthalen-1-yl)-8-fluoropyrido[4,3-d]pyrimidin-2-yl)oxy]methyl}-hexahydro-1H-pyrrolizin-3-yl]methyl 4-({5-[(2R)-1-[(2S,4R)-4-hydroxy-2-{[(1S)-1-[4-(4-methyl-1,3-thiazol-5-yl)phenyl]ethyl]carbamoyl}pyrrolidin-1-yl]-3-methyl-1-oxobutan-2-yl]-1,2-oxazol-3-yl}oxy)piperidine-1-carboxylate], in that order: 80 to 100% and < 600 nM.
For `C#Cc1c(F)ccc2cc(O)cc(-c3ncc4c(N5CC6CCC(C5)N6)nc(OCCN5CCC(CC6CCN(c7cc([C@@H](C(=O)N8C[C@H](O)C[C@H]8C(=O)N[C@@H](C)c8ccc(-c9ccnn9C)cc8)C(C)C)on7)CC6)CC5)nc4c3F)c12` [Compound 169, (2S,4R)-1-[(2S)-2-(3-{4-[(1-{2-[(4-{3,8-diazabicyclo[3.2.1]octan-3-yl}-7-(8-ethynyl-7-fluoro-3-hydroxynaphthalen-1-yl)-8-fluoropyrido[4,3-d]pyrimidin-2-yl)oxy]ethyl}piperidin-4-yl)methyl]piperidin-1-yl}-1,2-oxazol-5-yl)-3-methylbutanoyl]-4-hydroxy-N-[(1S)-1-[4-(1-methyl-1H-pyrazol-5-yl)phenyl]ethyl]pyrrolidine-2-carboxamide] the same measures were 20 to 60% and 600 to 1000 nM.
Take `CCc1cccc2cc(O)cc(-c3ncc4c(N5CC6CCC(C5)N6)nc(OC[C@@]56CCCN5[C@H](COC(=O)N5CCN(c7cc([C@@H](C(=O)N8C[C@H](O)C[C@H]8C(=O)N[C@@H](C)c8ccc(-c9scnc9C)cc8)C(C)C)on7)C[C@@H]5C)CC6)nc4c3F)c12` [Compound 326, [(3S,8S)-8-[[4-(3,8-diazabicyclo[3.2.1]octan-3-yl)-7-(8-ethyl-3-hydroxy-1-naphthyl)-8-fluoro-pyrido[4,3-d]pyrimidin-2-yl]oxymethyl]-1,2,3,5,6,7-hexahydropyrrolizin-3-yl]methyl (2S)-4-[5-[(1S)-1-[(2S,4R)-4-hydroxy-2-[[(1S)-1-[4-(4-methylthiazol-5-yl)phenyl]ethyl]carbamoyl]pyrrolidine-1-carbonyl]-isobutyl]isoxazol-3-yl]-2-methyl-piperazine-1-carboxylate]: the Dmax was < 20% and the 50% degradation concentration (DC50) was < 600 nM.
For `CCc1cccc2cccc(-c3ncc4c(N5CC6CCC(C5)N6)nc(OC[C@@H]5CC[C@@H](COC(=O)N6CCN(c7cc([C@H](C(=O)N8C[C@H](O)C[C@H]8C(=O)N[C@@H](C)c8ccc(-c9scnc9C)cc8)C(C)C)on7)[C@H](C)C6)N5C)nc4c3F)c12` [Compound 222, [(2S,5S)-5-{[(4-{3,8-diazabicyclo[3.2.1]octan-3-yl}-7-(8-ethylnaphthalen-1-yl)-8-fluoropyrido[4,3-d]pyrimidin-2-yl)oxy]methyl}-1-methylpyrrolidin-2-yl]methyl (3R)-4-{5-[(2R)-1-[(2S,4R)-4-hydroxy-2-{[(1S)-1-[4-(4-methyl-1,3-thiazol-5-yl)phenyl]ethyl]carbamoyl}pyrrolidin-1-yl]-3-methyl-1-oxobutan-2-yl]-1,2-oxazol-3-yl}-3-methylpiperazine-1-carboxylate] the same measures were 60 to 80% and < 600 nM.
For `C#Cc1c(F)ccc2cc(O)cc(-c3ncc4c(N5CC6CCC(C5)N6)nc(OC[C@@]56CCCN5[C@H](COC(=O)N5CCN(c7cc([C@H](C(=O)N8C[C@H](O)C[C@H]8C(=O)N[C@@H](C)c8ccc(-c9scnc9C)cc8)C(C)C)on7)CC5)CC6)nc4c3F)c12` [Compound 58, [(3S,7aS)-7a-{[(4-{3,8-diazabicyclo[3.2.1]octan-3-yl}-7-(8-ethynyl-7-fluoro-3-hydroxynaphthalen-1-yl)-8-fluoropyrido[4,3-d]pyrimidin-2-yl)oxy]methyl}-hexahydro-1H-pyrrolizin-3-yl]methyl 4-{5-[(2R)-1-[(2S,4R)-4-hydroxy-2-{[(1S)-1-[4-(4-methyl-1,3-thiazol-5-yl)phenyl]ethyl]carbamoyl}pyrrolidin-1-yl]-3-methyl-1-oxobutan-2-yl]-1,2-oxazol-3-yl}piperazine-1-carboxylate], in that order: 80 to 100% and < 600 nM.
In the case of `CCc1cccc2cc(O)cc(-c3ncc4c(N5CCCCCC5)nc(OC[C@]56CCCN5[C@H](COC(=O)N5CCN(c7cc([C@H](C(=O)N8C[C@H](O)C[C@H]8C(=O)N[C@@H](C)c8ccc(-c9scnc9C)cc8)C(C)C)on7)CC5)CC6)nc4c3F)c12` (relative stereo) [Compound 278, [(3S,8R)-8-[[4-(azepan-1-yl)-7-(8-ethyl-3-hydroxy-1-naphthyl)-8-fluoro-pyrido[4,3-d]pyrimidin-2-yl]oxymethyl]-1,2,3,5,6,7-hexahydropyrrolizin-3-yl]methyl4-[5-[(1R)-1-[(2S,4R)-4-hydroxy-2-[[(1S)-1-[4-(4-methylthiazol-5-yl)phenyl]ethyl]carbamoyl]pyrrolidine-1-carbonyl]-2-methyl-propyl]isoxazol-3-yl]piperazine-1-carboxylate], the maximal degradation (Dmax) lay in the range of 80 to 100% and the DC50 was < 600 nM.
For `C#Cc1c(F)ccc2cc(O)cc(-c3ncc4c(N5CC6CCC(C5)N6)nc(OCCN5CCC(OC6CN(c7cc([C@@H](C(=O)N8C[C@H](O)C[C@H]8C(=O)N[C@@H](C)c8ccc(-c9scnc9C)cc8)C(C)C)on7)C6)CC5)nc4c3F)c12` [Compound 158], in that order: 80 to 100% and < 600 nM.
With `C#Cc1c(F)ccc2cc(O)cc(-c3ncc4c(N5CC6CCC(C5)N6)nc(OCCN5CCC(CN6CCN(c7cc([C@H](C(=O)N8C[C@H](O)C[C@H]8C(=O)N[C@@H](C)c8ccc(-c9ccnn9C)cc8)C(C)C)on7)CC6)CC5)nc4c3F)c12` [Compound 190, (2S,4R)-1-[(2R)-2-(3-{4-[(1-{2-[(4-{3,8-diazabicyclo[3.2.1]octan-3-yl}-7-(8-ethynyl-7-fluoro-3-hydroxynaphthalen-1-yl)-8-fluoropyrido[4,3-d]pyrimidin-2-yl)oxy]ethyl}piperidin-4-yl)methyl]piperazin-1-yl}-1,2-oxazol-5-yl)-3-methylbutanoyl]-4-hydroxy-N-[(1S)-1-[4-(1-methyl-1H-pyrazol-5-yl)phenyl]ethyl] pyrrolidine-2-carboxamide], the Dmax was 80 to 100% and the 50% degradation concentration (DC50) is < 600 nM.
For `C#Cc1c(F)ccc2cc(O)cc(-c3ncc4c(N5CC6CCC(C5)N6)nc(OCCN5CCC(CC6CCN(c7cc([C@H](C(=O)N8C[C@H](O)C[C@H]8C(=O)N[C@@H](C)c8ccc(-c9ccnn9C)cc8)C(C)C)on7)CC6)CC5)nc4c3F)c12` [Compound 168, (2S,4R)-1-[(2R)-2-(3-{4-[(1-{2-[(4-{3,8-diazabicyclo[3.2.1]octan-3-yl}-7-(8-ethynyl-7-fluoro-3-hydroxynaphthalen-1-yl)-8-fluoropyrido[4,3-d]pyrimidin-2-yl)oxy]ethyl}piperidin-4-yl)methyl]piperidin-1-yl}-1,2-oxazol-5-yl)-3-methylbutanoyl]-4-hydroxy-N-[(1S)-1-[4-(1-methyl-1H-pyrazol-5-yl)phenyl]ethyl]pyrrolidine-2-carboxamide], in that order: 80 to 100% and < 600 nM.
